Here are results for six compounds from article PMC10914731, “Homo-BacPROTAC-induced degradation of ClpC1 as a strategy against drug-resistant mycobacteria” (Nature Communications, 2024).

In experiment [1] the target is ClpC1 NTD protein (M. tuberculosis) (Mycobacterium tuberculosis, UniProt P9WPC9). As to the kind of experiment: biochemical. Type of experiment: binding.
Experiment [2] has as its system Mtb (moxR) FNDR-M1. Put plainly: microbe, parasite or virus in culture. Type of experiment: cell-based.
For experiment [3], the system named is Staphylococcus aureus. Put plainly: MIC ESKAPES panel, Staphylococcus aureus. The class given is cell-based. On the procedure: Minimum inhibitory concentration (MIC) against ESKAPES panel of Gram positive and Gram negative pathogens (Enterococcus faecium, Staphylococcus aureus, Klebsiella pneumoniae, Acinetobacter baumannii, Pseudomonas aeruginosa, Enterobacter cloacae and Salmonella typhimurium [ESKAPES panel]) were determined at the FNDR by the standard broth dilution method [CLSI, M100]. […] Mueller Hinton broth (MHB) medium was used to grow ESKAPES panel strains. The individual cultures were added as 200 μL (inoculum of 3–7 × 10^5 cfu/ml) to the respective assay plates in each well to all columns, except the media control (200 μL of medium). […] The assay plates were incubated at 37 °C, and the results were noted on the 2nd day as turbidometric readout. The clear wells indicated inhibition of growth, while the turbid wells indicated uninhibited growth.

The test system of experiment [4] is Mtb Beijing lineage HN878. Type of experiment: cell-based, Mycobacterium tuberculosis.
For experiment [5], the target named is T1, full-length ClpC1 (Mycolicibacterium smegmatis, UniProt A0R574).
T1 construct: We also analyzed whether full-length ClpC1 would be degraded in this assay; made in house
T1 sequence (A0R574 whole entry): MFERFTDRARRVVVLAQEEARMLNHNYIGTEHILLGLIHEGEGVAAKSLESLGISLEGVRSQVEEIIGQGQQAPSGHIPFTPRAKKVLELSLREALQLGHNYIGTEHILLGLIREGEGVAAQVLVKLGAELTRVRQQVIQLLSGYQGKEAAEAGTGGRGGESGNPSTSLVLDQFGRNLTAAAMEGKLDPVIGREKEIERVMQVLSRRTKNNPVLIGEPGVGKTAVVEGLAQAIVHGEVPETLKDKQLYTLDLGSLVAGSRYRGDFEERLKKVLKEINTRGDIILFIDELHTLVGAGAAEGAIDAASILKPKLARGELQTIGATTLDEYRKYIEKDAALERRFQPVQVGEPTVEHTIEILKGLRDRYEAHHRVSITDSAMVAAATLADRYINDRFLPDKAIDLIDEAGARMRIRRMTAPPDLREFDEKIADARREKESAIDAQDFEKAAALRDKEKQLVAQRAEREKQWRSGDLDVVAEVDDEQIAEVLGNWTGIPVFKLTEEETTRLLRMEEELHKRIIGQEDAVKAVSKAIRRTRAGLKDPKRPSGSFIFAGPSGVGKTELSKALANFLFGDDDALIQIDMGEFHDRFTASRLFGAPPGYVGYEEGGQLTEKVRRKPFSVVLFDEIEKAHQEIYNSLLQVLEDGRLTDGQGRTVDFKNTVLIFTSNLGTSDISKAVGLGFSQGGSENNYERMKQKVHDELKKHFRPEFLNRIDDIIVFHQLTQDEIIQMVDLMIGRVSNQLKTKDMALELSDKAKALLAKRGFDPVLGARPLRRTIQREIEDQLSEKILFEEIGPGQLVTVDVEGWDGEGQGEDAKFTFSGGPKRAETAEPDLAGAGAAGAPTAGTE
Put plainly: Cell-free degradation of full-length ClpC1 (WES, SDS-PAGE). The class given is biochemical, M. smegmatis. The following applies: WES / SYPRO Ruby SDS-PAGE, result in words. An excerpt: We also analyzed whether full-length ClpC1 would be degraded in this assay, by analyzing the stability of the full-length form monitored by a ClpC1-N-terminal antibody in the WES assays, or directly by SYPRO^TM Ruby stained SDS-PAGE gels in the presence or absence of ClpC1-NTD as additional substrate. The Homo-BacPROTACs tested induced no or only minor degradation of the full-length ClpC1 under these in vitro conditions (Fig. 4e). Whether this is due to hexamer formation stabilizing ClpC1 protomers or missing cofactor(s) of the protease complex, is currently unclear. Likewise, the exact sequential and structural features of native substrates targeted by ClpC1 are not known, except that partially disordered peptide segments can promote degradation.
For SDS-PAGE experiments, reaction samples were treated with 2.7 µl 4x Roti Load 1 (Roth #K929.1), instead of adding sample buffer and fluorescent mastermix, and incubated at 95 °C for 5 min. […] The PageRuler Prestained Protein Ladder (Thermo Scientific #26616) was used as a marker. […]

The target of experiment [6] is ClpC1 NTD, M. smegmatis ClpC1P1P2 complex (UniProt A0R574+P9WPC9). The class given is biochemical. The following applies: for ClpC1 NTD peak area: replicates 1 and 2; for % Response: two replicates.
ClpC1 NTD, M. smegmatis ClpC1P1P2 complex, sequence (P9WPC9 1-156, looked up, natural form): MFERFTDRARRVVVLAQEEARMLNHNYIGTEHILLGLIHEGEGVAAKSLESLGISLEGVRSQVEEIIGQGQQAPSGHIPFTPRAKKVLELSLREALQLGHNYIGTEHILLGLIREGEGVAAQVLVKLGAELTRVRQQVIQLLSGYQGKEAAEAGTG
ClpC1 NTD, M. smegmatis ClpC1P1P2 complex, sequence (A0R574 whole entry): as the sequence (A0R574 whole entry) above
For experiment [7], the system named is Mtb H37Rv. Conditions: combination with bedaquiline; cited from earlier work.
Where [8] appears, read: SPR, individual measurements (source data), read-out: KD ClpC1-NTD.
[9] abbreviates: SPR, single independent measurements.
[10] abbreviates: SPR, read-out: ClpC1-NTD KD Mean ± SD.
The mark [11] stands for this setting: M. tuberculosis FNDR-M1, single well replicates.
The mark [12] stands for this setting: Mycobacterium tuberculosis, M. tuberculosis FNDR-M1, single well replicates.
Where [13] appears, read: Mycobacterium tuberculosis, Mtb (moxR) FNDR-M1, mean ± SD, n = 3 well replicates.
The mark [14] stands for this setting: Gram-Positive Bacteria, replicates 1-3.
[15] abbreviates: Staphylococcus aureus, Gram positive, n = 3 well replicates.
Setting [16] is: Staphylococcus aureus, Gram-Positive Bacteria, replicates 1-3.

Each structure is given as a SMILES string. Values after ≈ are worked out from the molar mass of the structure shown. Values joined by “and” are separate entries in the source; they are usually repeats but may differ in a detail not shown here. Equal entries are not always repeated. Where two headings read alike, the source gives them in different places. *1 amine or outer side, *2 acyl side, *3 side chain or, on linkers, in order; H or OH if unused. Where a SMILES comes first, the peptide text is derived from it. [ ]: non-standard residue; d: D form. X1 = C#CCn1cc(C[C@H](N[*:1])C(=O)[*:2])c2ccccc21; NMeLeu(5-OH,4R) = CN[C@@H](C[C@@H](C)CO)C(=O)O; Phe(βR-OMe) = CO[C@H](c1ccccc1)[C@H](N)C(=O)O; Trp(1-Me) = Cn1cc(C[C@H](N)C(=O)O)c2ccccc21; NMeL = CN[C@@H](CC(C)C)C(=O)O; Pra = C#CC[C@H](N)C(=O)O

ClpC1 NTD protein (M. tuberculosis), sequence (P9WPC9 1-156, looked up, natural form): as the sequence (P9WPC9 1-156, looked up, natural form) above

As a reminder, the Kd is the equilibrium constant for the complex coming apart. As a reminder, the koff is a measure of how fast the partners let go of each other. Regarding `C#CCn1cc(C[C@@H]2NC(=O)[C@H](C(C)C)NC(=O)[C@H](CC(C)C)N(C)C(=O)[C@H](C(C)C)NC(=O)[C@H]([C@H](OC)c3ccccc3)NC(=O)[C@H](C)NC(=O)[C@H](C[C@@H](C)CO)N(C)C2=O)c2ccccc21` [Compound 5] (cyclo(A[Phe(βR-OMe)]V[NMeL]V[X1][NMeLeu(5-OH,4R)])), the Kd in experiment [1] (setting [8]) is 3.63 nM and 3.45 nM; in experiment [1] (setting [10]), 3.5 ± 0.1 nM. Besides, in experiment [1] (setting [9]), the “koff ClpC1-NTD” value is 0.04 s⁻¹. For the same compound, in experiment [1] (SPR, single independent measurements, read-out: koff ClpC1-NTD), the koff stood at 0.02 s⁻¹. Besides, the MIC in experiment [2] (setting [11]) was 0.391 µM and 0.781 µM; in experiment [2] (setting [12]), 0.781 µM (≈ 0.735 µg/mL); in experiment [2] (setting [13]), 0.7 ± 0.2 µM (≈ 0.659 µg/mL); in experiment [3] (setting [14]), greater than 50 µM; in experiment [3] (setting [15]), greater than 50 µM; in experiment [3] (setting [16]), greater than 47 µg/mL.
For `CO[C@H](c1ccccc1)[C@@H]1NC(=O)[C@H](C)NC(=O)[C@H](C[C@@H](C)CO)N(C)C(=O)[C@H](Cc2cn(Cc3cn(CCOCCn4cc(Cn5cc(C[C@@H]6NC(=O)[C@H](C(C)C)NC(=O)[C@H](CC(C)C)N(C)C(=O)[C@H](C(C)C)NC(=O)[C@H]([C@H](OC)c7ccccc7)NC(=O)[C@H](C)NC(=O)[C@H](C[C@@H](C)CO)N(C)C6=O)c6ccccc65)nn4)nn3)c3ccccc23)NC(=O)[C@H](C(C)C)NC(=O)[C@H](CC(C)C)N(C)C(=O)[C@H](C(C)C)NC1=O` [Compound 6], the koff in experiment [1] (SPR dissociation rate constant, read-out: koff ClpC1-NTD Mean ± SD) amounted to 0.001 s⁻¹. The Kd was 1.36 nM and 1.13 nM and 0.535 nM and 0.649 nM in experiment [1] (setting [8]); 0.9 ± 0.4 nM in experiment [1] (setting [10]). Moreover, in experiment [1] (setting [9]), the “koff ClpC1-NTD” value was determined as 0.001 s⁻¹.
As for `COC(c1ccccc1)C1NC(=O)C(C)NC(=O)C(CC(C)CO)N(C)C(=O)C(Cc2cn(Cc3cn(CCOCCOCCOCCOCCn4cc(Cn5cc(CC6NC(=O)C(C(C)C)NC(=O)C(CC(C)C)N(C)C(=O)C(C(C)C)NC(=O)C(C(OC)c7ccccc7)NC(=O)C(C)NC(=O)C(CC(C)CO)N(C)C6=O)c6ccccc65)nn4)nn3)c3ccccc23)NC(=O)C(C(C)C)NC(=O)C(CC(C)C)N(C)C(=O)C(C(C)C)NC1=O` (stereo not drawn) [Compound 8], the Kd in experiment [1] (SPR, individual measurements (source data), listed as 8 (UdSBI-0545), read-out: KD ClpC1-NTD) is 0.325 nM and 0.439 nM and 0.567 nM and 0.381 nM; in experiment [1] (setting [10]) it was 0.4 ± 0.1 nM. Moreover, the MIC was 0.195 µM (≈ 0.423 µg/mL) in experiment [2] (setting [11]); 0.195 µM (≈ 0.423 µg/mL) in experiment [2] (setting [12]); 0.2 µM (≈ 0.434 µg/mL) in experiment [2] (setting [13]); greater than 50 µM in experiment [3] (Gram-Positive Bacteria, replicates 1-3, listed as 8 (UdSBI-0545)); greater than 50 µM in experiment [3] (setting [15]); greater than 109 µg/mL in experiment [3] (setting [16]). The “inhibition of bacterial growth, Mtb Beijing strain HN878” value in experiment [4] (compared to the matching monomers, result in words) was “more efficient inhibition of bacterial”. Besides, the “degradation of full-length ClpC1” value in experiment [5] was “not significantly degraded”. The “ClpC1 NTD peak area” value is 331639 and 301583 in experiment [6] (8 µM compound, time 0 min); 314553 and 280109 in experiment [6] (8 µM compound, time 45 min); 285641 and 244656 in experiment [6] (8 µM compound, time 90 min); 191892 in experiment [6] (8 µM compound, time 150 min); 311145 and 177822 in experiment [6] (8 µM compound, time 240 min); 222125 and 221356 in experiment [6] (8 µM compound, time 360 min). Also, the “ClpC1 NTD peak area” value is 810154 and 722357 in experiment [6] (33 µM compound, time 0 min); 641074 and 448402 in experiment [6] (33 µM compound, time 45 min); 173883 and 214990 in experiment [6] (33 µM compound, time 90 min); 175010 and 133678 in experiment [6] (33 µM compound, time 150 min); 91238.1 and 172941 in experiment [6] (33 µM compound, time 240 min); 204242 and 62562.1 in experiment [6] (33 µM compound, time 360 min). Besides, the “% Response” value in experiment [6] (8 µM compound, time 0 min) was 94.5282% and 100.62%; in experiment [6] (8 µM compound, time 45 min), 83.982% and 77.683%; in experiment [6] (8 µM compound, time 90 min), 56.6216% and 52.7782%; in experiment [6] (8 µM compound, time 150 min), 43.2573%; in experiment [6] (8 µM compound, time 240 min), 45.4516% and 26.6563%; in experiment [6] (8 µM compound, time 360 min), 26.4436% and 30.03%. Moreover, the “% Response” value was 102.812% and 94.7011% in experiment [6] (33 µM compound, time 0 min); 59.8432% and 44.7396% in experiment [6] (33 µM compound, time 45 min); 14.8318% and 19.2596% in experiment [6] (33 µM compound, time 90 min); 13.2219% and 10.0521% in experiment [6] (33 µM compound, time 150 min); 6.759% and 11.5705% in experiment [6] (33 µM compound, time 240 min); 8.812% and 3.58% in experiment [6] (33 µM compound, time 360 min).
Turning to `C#CC[C@@H]1NC(=O)[C@H](CC(C)C)N(C)C(=O)[C@H](C(C)C)NC(=O)[C@H]([C@H](OC)c2ccccc2)NC(=O)[C@H](C)NC(=O)[C@H](C[C@@H](C)CO)N(C)C(=O)[C@H](Cc2cn(C)c3ccccc23)NC1=O` [Compound 10] (cyclo(A[Phe(βR-OMe)]V[NMeL][Pra][Trp(1-Me)][NMeLeu(5-OH,4R)])), the Kd is 4.65 nM and 4.5 nM and 3.27 nM and 3.4 nM in experiment [1] (setting [8]); 4 ± 0.7 nM in experiment [1] (setting [10]). Besides, the MIC in experiment [2] (setting [11]) was 1.56 µM (≈ 1.42 µg/mL); in experiment [2] (setting [12]), 1.56 µM (≈ 1.42 µg/mL); in experiment [2] (setting [13]), 1.6 µM (≈ 1.46 µg/mL); in experiment [3] (setting [14]) it was greater than 50 µM; in experiment [3] (setting [15]), greater than 50 µM; in experiment [3] (setting [16]), greater than 45.6 µg/mL.
As for `COC(c1ccccc1)C1NC(=O)C(C)NC(=O)C(CC(C)CO)N(C)C(=O)C(Cc2cn(C)c3ccccc23)NC(=O)C(Cc2cn(CCCCCn3cc(CC4NC(=O)C(CC(C)C)N(C)C(=O)C(C(C)C)NC(=O)C(C(OC)c5ccccc5)NC(=O)C(C)NC(=O)C(CC(C)CO)N(C)C(=O)C(Cc5cn(C)c6ccccc56)NC4=O)nn3)nn2)NC(=O)C(CC(C)C)N(C)C(=O)C(C(C)C)NC1=O` (stereo not drawn) [Compound 12], the Kd in experiment [1] (SPR, individual measurements (source data), listed as 12 (UdSBI-4377), read-out: KD ClpC1-NTD) is 0.169 nM and 0.284 nM and 0.283 nM and 0.407 nM and 0.412 nM and 0.327 nM and 0.181 nM and 0.203 nM and 0.279 nM; in experiment [1] (setting [10]), 0.28 ± 0.08 nM. In addition, in experiment [1] (monomeric 10 to dimeric 12 / Homo-BacPROTACs versus monomeric compounds), the “improvement of SPR KD to ClpC1-NTD, dimer versus monomer (factor)” value is 10. Also, the MIC in experiment [2] (setting [11]) was 0.195 µM (≈ 0.386 µg/mL); in experiment [2] (setting [12]), 0.195 µM (≈ 0.386 µg/mL); in experiment [2] (setting [13]), 0.2 µM (≈ 0.396 µg/mL); in experiment [3] (Gram-Positive Bacteria, replicates 1-3, listed as 12 (UdSBI-4377)), greater than 50 µM; in experiment [3] (setting [15]), greater than 50 µM; in experiment [3] (setting [16]) it was greater than 99 µg/mL. The “inhibition of bacterial growth, Mtb Beijing strain HN878” value in experiment [4] is given as “more efficient inhibition of bacterial”. Besides, in experiment [7], the “effect of bedaquiline on activity against Mtb H37Rv” value is “no effect”.
On to `COc1c(N2C[C@@H]3CCCN[C@@H]3C2)c(F)cc2c(=O)c(C(=O)O)cn(C3CC3)c12` [Moxifloxacin, reference compound], for which the MIC in experiment [2] (setting [11]) was 19.93 µM (≈ 8 µg/mL); in experiment [2] (setting [12]), 19.9 µM (≈ 8 µg/mL); in experiment [2] (setting [13]), 19.9 µM (≈ 7.99 µg/mL); in experiment [3] (setting [15]) it was 0.3 µM; in experiment [3] (setting [16]), 0.31 µM and 0.125 µg/mL.
